According to patent US12203089B2, “Plants having increased tolerance to herbicides” (BASF SE, priority 2015, dated 2025):

How the values were obtained:
Format in all cases: in vivo
[1] = test system: Brassica napus expressing BnaA03g55200D (SEQ ID 12) variant S1038F; test: 6-well plate injury test, T1 seeds on vermiculite; conditions: 7 days after treatment
Description: (§1) Transgenic Brassica napus plants are assayed for improved tolerance to azine herbicides like e. g. 6-cyclopentyl-N4-(2,3,4,5,6-pentafluorophenyl)-1,3,5-triazine-2,4-diamine in 6-well plates. Therefore, 5-6 T1 seeds are sown on vermiculite and watered with half-strength murashige skoog nutrient solution, pH 5.8 (Murashige and Skoog (1962) Physiologia Plantarum 15: 473-497). Compounds are dissolved in dimethylsulfoxid (DMSO) and added to the medium (final DMSO concentration 0.1%). Multi well plates are incubated in a growth chamber at 22° C., 75% relative humidity and 110 μmol Phot*m^−2*s^−1 with 14: 10 h light: dark photoperiod. Growth inhibition is evaluated seven to ten days after seeding in comparison to wild type plants. Plant injury is rated on a scale of 0% to 100%, 0% being no injury and 100% being complete death.

[2] = test system: Brassica napus expressing BnaA03g55200D (SEQ ID 12) variant S1041L; test: 6-well plate injury test, T1 seeds on vermiculite; conditions: 7 days after treatment
Description: as §1

[3] = test system: Brassica napus expressing BnaA03g52020D (SEQ ID 15) variant G1015R; test: Greenhouse herbicide tolerance, pre emergent; conditions: 7 days after treatment
Description: (§2) T1/T2 transgenic plants of Brassica napus containing cellulose synthase sequences or mutated gene variants thereof are tested for improved tolerance to herbicides in greenhouse studies with azine herbicides. For the pre-emergence treatment, the herbicides are applied directly after sowing by means of finely distributing nozzles. The containers are irrigated gently to promote germination and growth and subsequently covered with transparent plastic hoods until the plants have rooted. This cover causes uniform germination of the test plants, unless this has been impaired by the herbicides. For post emergence treatment, the test plants are first grown to a height of 3 to 15 cm, depending on the plant habit, and only then treated with the herbicides. For this purpose, the test plants are either sown directly, and grown in the same containers or they are first grown separately and transplanted into the test containers a few days prior to treatment.
(§3) Herbicide injury evaluations are taken at 1, 2 and 3 weeks after treatment. Plant biomass reduction is rated on a scale of 0% to 100%, 0% being no reduction of biomass compared to untreated control, and 100% being complete absence of biomass.

[4] = test system: Brassica napus expressing BnaAnng01240D (SEQ ID 20) variant S1038F; test: Greenhouse herbicide tolerance, pre emergent; conditions: 7 days after treatment
Description: as §2, §3

[5] = test system: Brassica napus wildtype; test: Greenhouse herbicide tolerance, pre emergent; conditions: 1.95 g/ha, 7 days after treatment
Description: as §2, §3

[6] = test system: Arabidopsis thaliana expressing AtCesA3_wt (SEQ ID 3); test: 48-well plate growth inhibition, T2 seeds, tolerance factor; conditions: based on IC50 values of growth inhibition, seven to ten days after seeding
Description: Transgenic Arabidopsis thaliana plants (T2) are assayed for improved tolerance to azine herbicides like e. g. 6-cyclopentyl-N4-(2,3,4,5,6-pentafluorophenyl)-1,3,5-triazine-2,4-diamine in 48-well plates. Therefore, T2 seeds are surface sterilized by stirring for 5 min in ethanol+water (70+30 by volume), rinsing one time with ethanol+water (70+30 by volume) and two times with sterile, deionized water. The seeds are resuspended in 0.1% agar dissolved in water (w/v) Four to five seeds per well are plated on solid nutrient medium consisting of half-strength murashige skoog nutrient solution, pH 5.8 (Murashige and Skoog (1962) Physiologia Plantarum 15: 473-497). Compounds are dissolved in dimethylsulfoxid (DMSO) and added to the medium prior solidification (final DMSO concentration 0.1%). Multi well plates are incubated in a growth chamber at 22° C., 75% relative humidity and 110 μmol Phot*m^−2*s^−1 with 14:10 h light:dark photoperiod. Growth inhibition is evaluated seven to ten days after seeding in comparison to wild type plants. Tolerance factors are calculated based on IC50 values of growth inhibition of transformed versus non-transformed Arabidopsis plants.

[7] = test system: Brassica napus expressing BnaA01g04600D (SEQ ID 21) variant G1012R; test: 6-well plate injury test, T1 seeds on vermiculite; conditions: BnaA01g04600D G1012R event 1, 7 days after treatment
Description: as §1

[8] = test system: Brassica napus wildtype; test: 6-well plate injury test, seeds on vermiculite
Description: as §1

[9] = test system: Brassica napus expressing BnaAnng01240D (SEQ ID 20) variant S1041L; test: Greenhouse herbicide tolerance, post emergent; conditions: 7 days after treatment
Description: as §2, §3

Work on `Nc1nc(Nc2c(F)c(F)c(F)c(F)c2F)nc(C2CCCC2)n1` [6-cyclopentyl-N4-(2,3,4,5,6-pentafluorophenyl)-1,3,5-triazine-2,4-diamine] yielded an average phytotox value ([1]; BnaA03g55200D S1038F event 1, 5*10^-8M) of 40%, an average phytotox value ([1]; BnaA03g55200D S1038F event 1, 10^-6M) of 80% and an average phytotox value ([1]; BnaA03g55200D S1038F event 1, 10^-7M) of 75%. For the same compound, the average phytotox value ([1]; BnaA03g55200D S1038F event 1, 10^-8M) was 15%, the average phytotox value ([1]; BnaA03g55200D S1038F event 1, 10^-9M) was 0% and the average phytotox value ([1]; BnaA03g55200D S1038F event 2, 5*10^-8M) was 65%. For the same compound, the average phytotox value ([1]; BnaA03g55200D S1038F event 2, 10^-6M) was 90%, the average phytotox value ([1]; BnaA03g55200D S1038F event 2, 10^-7M) was 75% and the average phytotox value ([1]; BnaA03g55200D S1038F event 2, 10^-8M) was 0%. It also gave an average phytotox value ([1]; BnaA03g55200D S1038F event 2, 10^-9M) of 0%, an average phytotox value ([1]; BnaA03g55200D S1038F event 3, 5*10^-8M) of 65% and an average phytotox value ([1]; BnaA03g55200D S1038F event 3, 10^-6M) of 90%. For the same compound, the average phytotox value ([1]; BnaA03g55200D S1038F event 3, 10^-7M) was 80%, the average phytotox value ([1]; BnaA03g55200D S1038F event 3, 10^-8M) was 0% and the average phytotox value ([1]; BnaA03g55200D S1038F event 3, 10^-9M) was 0%. It also gave an average phytotox value ([2]; BnaA03g55200D S1041L event 1, 5*10^-8M) of 35%, an average phytotox value ([2]; BnaA03g55200D S1041L event 1, 10^-6M) of 95% and an average phytotox value ([2]; BnaA03g55200D S1041L event 1, 10^-7M) of 75%. It also gave an average phytotox value ([2]; BnaA03g55200D S1041L event 1, 10^-8M) of 0%, an average phytotox value ([2]; BnaA03g55200D S1041L event 1, 10^-9M) of 0% and an average phytotox value ([2]; BnaA03g55200D S1041L event 2, 5*10^-8M) of 50%. The average phytotox value ([2]; BnaA03g55200D S1041L event 2, 10^-6M) was 90%, the average phytotox value ([2]; BnaA03g55200D S1041L event 2, 10^-7M) was 80% and the average phytotox value ([2]; BnaA03g55200D S1041L event 2, 10^-8M) was 10%. It also gave an average phytotox value ([2]; BnaA03g55200D S1041L event 2, 10^-9M) of 0%, an average phytotox value ([2]; BnaA03g55200D S1041L event 3, 5*10^-8M) of 60% and an average phytotox value ([2]; BnaA03g55200D S1041L event 3, 10^-6M) of 85%. The average phytotox value ([2]; BnaA03g55200D S1041L event 3, 10^-7M) was 70%, the average phytotox value ([2]; BnaA03g55200D S1041L event 3, 10^-8M) was 0% and the average phytotox value ([2]; BnaA03g55200D S1041L event 3, 10^-9M) was 0%. The average phytotox value ([2]; BnaA03g55200D S1041L event 4, 5*10^-8M) was 50%, the average phytotox value ([2]; BnaA03g55200D S1041L event 4, 10^-6M) was 85% and the average phytotox value ([2]; BnaA03g55200D S1041L event 4, 10^-7M) was 60%. For the same compound, the average phytotox value ([2]; BnaA03g55200D S1041L event 4, 10^-8M) was 10%, the average phytotox value ([2]; BnaA03g55200D S1041L event 4, 10^-9M) was 0% and the average phytotox value ([3]; 1.95 g/ha) was 27%. For the same compound, the average phytotox value ([3]; 3.9 g/ha) was 0%, the average phytotox value ([3]; 7.8 g/ha) was 0% and the average phytotox value ([3]; 15.6 g/ha) was 21%. The average phytotox value ([4]; 1.95 g/ha) was 1%, the average phytotox value ([4]; 3.9 g/ha) was 14% and the average phytotox value ([4]; 7.8 g/ha) was 8%. For the same compound, the average phytotox value ([4]; 15.6 g/ha) was 26%, the average phytotox value [5] was 18% and the “Relative tolerance rate as compared to non-transgenic Arabidopsis plants (non-transgenic = 1.0)” value [6] was 1.

`Nc1nc(Nc2nc(F)c(F)c(Cl)c2F)nc(C2(F)CCCC2)n1` [N2-(4-chloro-3,5,6-trifluoro-2-pyridyl)-6-(1-fluorocyclopentyl)-1,3,5-triazine-2,4-diamine] gave an average phytotox value ([7]; 5*10-7) of 75%, an average phytotox value ([7]; 5*10^-8M) of 10% and an average phytotox value ([7]; 10^-6M) of 80%. The average phytotox value ([7]; 10^-7M) was 10%, the average phytotox value ([7]; 10^-8M) was 0% and the average phytotox value ([8]; 5*10-7, 7 days after treatment) was 78%. The average phytotox value ([8]; 5*10^-8M, 7 days after treatment) was 18%, the average phytotox value ([8]; 10^-6M, 7 days after treatment) was 85% and the average phytotox value ([8]; 10^-7M, 7 days after treatment) was 56%. For the same compound, the average phytotox value ([8]; 10^-8M, 7 days after treatment) was 8%, the average phytotox value ([9]; 7.8 g/ha) was 6% and the average phytotox value ([9]; 15.6 g/ha) was 9%. For the same compound, the average phytotox value ([9]; 31.25 g/ha) was 54%, the average phytotox value ([9]; 62.5 g/ha) was 64% and the “Relative tolerance rate as compared to non-transgenic Arabidopsis plants (non-transgenic = 1.0)” value [6] was 1.
